Details: Liquid, Ebulliometric method (Recirculating still)

C=CC(C)C#N (centres undefined) [2-methyl-3-butenenitrile]
Details | vapor or sublimation pressure [kPa]
297.57 K | 2.701
304.35 K | 3.664
309.86 K | 4.608
315.95 K | 6.064
318.68 K | 6.731
321.34 K | 7.521
324.85 K | 8.987
327.15 K | 9.9
331.76 K | 11.75
335.25 K | 13.48
339.53 K | 15.75
343.65 K | 18.68
352.65 K | 25.35
356.05 K | 29.21
359.56 K | 33.21
364.85 K | 38.55
369.25 K | 44.68
373.25 K | 50.01
376.09 K | 55.48
379.75 K | 62.68
382.83 K | 68.94
387.65 K | 79.23
391.95 K | 90.16
394.25 K | 95.76

Source: the NIST ThermoML archive (doi:10.1021/acs.jced.5b00943)
